In general, IC50 refers to the concentration at which inhibition is half-maximal.

Where two headings read alike, the source gives them in different places. A value given as a limit tells only on which side of the number the result lay.

The text below walks through data of US20240390340A1 (INCYTE CORPORATION, priority 2023, published 2024).

Assay [1] concerns the target KRAS G12V (Homo sapiens, UniProt P01116, G12V). Description: GDP-GTP exchange assay (bodipy-GDP/GppNHp, SOS1), KRAS G12V. Type of assay: biochemical.
Assay [2] has as its target KRAS G12D (Homo sapiens, UniProt P01116, G12D). Description: GDP-GTP exchange assay (bodipy-GDP/GppNHp, SOS1), KRAS G12D. Format: biochemical.
The mark [3] stands for this setting: KRAS G12V mutant, value for the most potent isomer quoted for certain compounds, read-out: G12V (KRAS G12V exchange assay IC50).
The mark [4] stands for this setting: bodipy-loaded KRAS G12D 2.5 nM, 4 h pre-incubation, value for the most potent isomer quoted for certain compounds, read-out: G12D (KRAS G12D exchange assay IC50).
Setting [5] is: Table H, column G12V, for compounds isolated as several atropisomers/diastereoisomers the value for the most potent isomer is quoted, read-out: KRAS G12V exchange assay IC50.
[6] abbreviates: Table H, column G12D, for compounds isolated as several atropisomers/diastereoisomers the value for the most potent isomer is quoted, read-out: KRAS G12D exchange assay IC50.

Chain of KRAS G12V (P01116 1-188 isoform P01116-2 G12V): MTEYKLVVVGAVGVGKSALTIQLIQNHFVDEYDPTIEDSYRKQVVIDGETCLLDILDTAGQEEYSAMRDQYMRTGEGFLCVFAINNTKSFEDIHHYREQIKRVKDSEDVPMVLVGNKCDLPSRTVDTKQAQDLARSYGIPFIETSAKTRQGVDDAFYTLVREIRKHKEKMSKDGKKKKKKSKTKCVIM
Chain of KRAS G12D (P01116 1-188 isoform P01116-2 G12D): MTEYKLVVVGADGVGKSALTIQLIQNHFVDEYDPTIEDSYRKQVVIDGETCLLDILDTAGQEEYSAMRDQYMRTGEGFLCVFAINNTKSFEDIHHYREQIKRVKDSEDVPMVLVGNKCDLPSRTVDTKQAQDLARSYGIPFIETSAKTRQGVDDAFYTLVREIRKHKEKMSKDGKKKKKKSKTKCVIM

With `N#CCCc1cc2c(nc(C3=CCS(=O)(=O)CC3)c3cc([C@H]4C[C@H](OCc5c(F)cccc5F)CN4C(=O)C4CC4)n([C@H]4[C@H]5CN[C@@H]4C5)c32)c(F)c1-c1cccc(Cl)c1Cl` [Example 240], the IC50 in assay [1] (setting [3]) was ≤ 100 nM; in assay [2] (setting [4]), 100 to 1000 nM.

As to `Cc1nc2c(F)c(-c3cccc(Cl)c3Cl)c(CCC#N)cc2c2c1cc([C@H]1C[C@H](n3nnc(-c4ccccc4)n3)CN1C(=O)C1CC1)n2[C@H]1[C@H]2CN[C@@H]1C2` [Example 399], the IC50 in assay [1] (setting [3]) and in assay [2] (setting [4]) was ≤ 100 nM each time.

Take `[2H]C([2H])(O[C@H]1C[C@H](c2cc3c(C(C)O)nc4c(F)c(-c5cccc(Cl)c5Cl)c(CCC#N)cc4c3n2[C@H]2[C@H]3CN[C@@H]2C3)N(C(=O)C2CC2)C1)c1nscc1C` (stereo partly drawn) [Example 237]: the IC50 in assay [1] (setting [3]) and in assay [2] (setting [4]) was ≤ 100 nM in each case.

As to `Cc1nc2c(F)c(-c3cccc(Cl)c3Cl)c(CCC#N)cc2c2c1cc([C@H]1C[C@H](Oc3cccc(C(C)C)c3)CN1C(=O)C1CC1)n2[C@H]1[C@H]2CN[C@@H]1C2` [Example 168], the IC50 in assay [1] (setting [3]) was ≤ 100 nM; in assay [2] (setting [4]) it was 100 to 1000 nM.

In the case of `CN1CC=C(c2nc3c(F)c(-c4cccc(Cl)c4Cl)c(CCC#N)cc3c3c2cc([C@H]2C[C@H](OCc4c(F)cccc4F)CN2C(=O)C2CC2)n3[C@H]2[C@H]3CN[C@@H]2C3)CC1` [Example 219], the concentration for half-maximal inhibition (IC50) in assay [1] (setting [3]) and in assay [2] (setting [4]) was ≤ 100 nM in each case.

Take `Cc1nc2c(F)c(-c3cccc(Cl)c3Cl)c(CCC#N)cc2c2c1cc([C@H]1C[C@H](Oc3ccc(=O)n(C)c3)CN1C(=O)C1CC1)n2[C@H]1[C@H]2CN[C@@H]1C2` [Example 50]: the IC50 in assay [1] (setting [5]) and in assay [2] (setting [6]) was ≤ 100 nM each time.

With `COC(=O)C1CCC(c2cn([C@H]3C[C@H](c4cc5c(C)nc6c(F)c(-c7cccc(Cl)c7Cl)c(CCC#N)cc6c5n4[C@H]4[C@H]5CN[C@@H]4C5)N(C(=O)C4CC4)C3)nn2)C1` (stereo partly drawn) [Example 391], the IC50 in assay [1] (setting [3]) and in assay [2] (setting [4]) was ≤ 100 nM each time.

Regarding `Cc1nc2c(F)c(-c3cccc(Cl)c3Cl)c(CCC#N)cc2c2c1cc([C@H]1C[C@H](Oc3cccc(F)c3)CN1C(=O)C1CC1)n2[C@H]1[C@H]2CN[C@@H]1C2` [Example 122], the IC50 in assay [1] (setting [3]) and in assay [2] (setting [4]) was ≤ 100 nM each time.

In the case of `Cc1csc(CO[C@H]2C[C@H](c3cc4c(C)nc5c(F)c(-c6cccc(Cl)c6Cl)c(CCC#N)cc5c4n3[C@H]3[C@H]4CN[C@@H]3C4)N(C(=O)C3CC3)C2)n1` [Example 359], the IC50 in assay [1] (setting [3]) and in assay [2] (setting [4]) was ≤ 100 nM each time.

As to `Cc1cn([C@H]2C[C@H](c3cc4c(C)nc5c(F)c(-c6cccc(Cl)c6Cl)c(CCC#N)cc5c4n3[C@H]3[C@H]4CN[C@@H]3C4)N(C(=O)C3CC3)C2)nn1` [Example 343], the IC50 in assay [1] (setting [3]) and in assay [2] (setting [4]) was ≤ 100 nM in each case.

With `Cc1nc2c(F)c(-c3cccc(Cl)c3Cl)c(CCC#N)cc2c2c1cc([C@H]1C[C@H](Oc3ccccc3)CN1C(=O)C1CC1)n2[C@H]1[C@H]2CN[C@@H]1C2` [Example 103], the IC50 in assay [1] (setting [3]) and in assay [2] (setting [4]) was ≤ 100 nM each time.

As for `Cc1nc2cc(O[C@H]3C[C@H](c4cc5c(C)nc6c(F)c(-c7cccc(Cl)c7Cl)c(CCC#N)cc6c5n4[C@H]4[C@H]5CN[C@@H]4C5)N(C(=O)C4CC4)C3)ccc2s1` [Example 132], the IC50 in assay [1] (setting [3]) and in assay [2] (setting [4]) was ≤ 100 nM each time.

Take `Cc1nc2c(F)c(-c3cccc(Cl)c3Cl)c(CCC#N)cc2c2c1cc([C@H]1C[C@H](Oc3cnn4ccccc34)CN1C(=O)C1CC1)n2[C@H]1[C@H]2CN[C@@H]1C2` [Example 194]: the IC50 in assay [1] (setting [3]) and in assay [2] (setting [4]) was ≤ 100 nM throughout.

For the compound `Cc1nc2c(F)c(-c3cccc(Cl)c3Cl)c(CCC#N)cc2c2c1cc([C@H]1C[C@H](OC[C@@H]3CCCN3)CN1C(=O)C1CC1)n2[C@H]1[C@H]2CN[C@@H]1C2` [Example 449], the IC50 in assay [1] (setting [3]) and in assay [2] (setting [4]) was ≤ 100 nM throughout.

On to `Cc1nc2c(F)c(-c3cccc(Cl)c3Cl)c(CCC#N)cc2c2c1cc([C@H]1C[C@H](OC(C)c3nccs3)CN1C(=O)C1CC1)n2[C@H]1[C@H]2CN[C@@H]1C2` (stereo partly drawn) [Example 363], for which the IC50 in assay [1] (setting [3]) and in assay [2] (setting [4]) was ≤ 100 nM throughout.

As for `Cc1nc2c(F)c(-c3cccc(Cl)c3Cl)c(CCC#N)cc2c2c1cc([C@H]1C[C@H](n3nnc(-c4cccc(OC(F)(F)F)c4)n3)CN1C(=O)C1CC1)n2[C@H]1[C@H]2CN[C@@H]1C2` [Example 436], the IC50 is 100 to 1000 nM in assay [1] (setting [3]) and ≤ 100 nM in assay [2] (setting [4]).

For `COc1ncnc2c1ccn2[C@H]1C[C@H](c2cc3c(C)nc4c(F)c(-c5cccc(Cl)c5Cl)c(CCC#N)cc4c3n2[C@H]2[C@H]3CN[C@@H]2C3)N(C(=O)C2CC2)C1` [Example 73, 3-(1-((1R,4R,5S)-2-Azabicyclo[2.1.1]hexan-5-yl)-2-((2R,4S)-1-(cyclopropanecarbonyl)-4-(4-methoxy-7H-pyrrolo[2,3-d]pyrimidin-7-yl)pyrrolidin-2-yl)-7-(2,3-dichlorophenyl)-6-fluoro-4-methyl-1H-pyrrolo[3,2-c]quinolin-8-yl)propanenitrile], the IC50 in assay [1] (setting [5]) and in assay [2] (setting [6]) was ≤ 100 nM in each case.

On to `Cc1nc2c(F)c(-c3cccc(Cl)c3Cl)c(CCC#N)cc2c2c1cc([C@H]1C[C@H](n3cc(C4(C)CCCCC4)nn3)CN1C(=O)C1CC1)n2[C@H]1[C@H]2CN[C@@H]1C2` [Example 66, 3-(1-((1R,4R,5S)-2-Azabicyclo[2.1.1]hexan-5-yl)-2-((2R,4S)-1-(cyclopropanecarbonyl)-4-(4-(1-methylcyclohexyl)-1H-1,2,3-triazol-1-yl)pyrrolidin-2-yl)-7-(2,3-dichlorophenyl)-6-fluoro-4-methyl-1H-pyrrolo[3,2-c]quinolin-8-yl)propanenitrile], for which the IC50 in assay [1] (setting [5]) and in assay [2] (setting [6]) was ≤ 100 nM in each case.

In the case of `Cc1csnc1C(C)O[C@H]1C[C@H](c2cc3c(C)nc4c(F)c(-c5cccc(Cl)c5Cl)c(CCC#N)cc4c3n2[C@H]2[C@H]3CN[C@@H]2C3)N(C(=O)C2CC2)C1` (stereo partly drawn) [Example 330], the concentration for half-maximal inhibition (IC50) in assay [1] (setting [3]) and in assay [2] (setting [4]) was ≤ 100 nM each time.

For `COC1CN(c2ccnc(O[C@H]3C[C@H](c4cc5c(C)nc6c(F)c(-c7cccc(Cl)c7Cl)c(CCC#N)cc6c5n4[C@H]4[C@H]5CN[C@@H]4C5)N(C(=O)C4CC4)C3)c2)C1` [Example 367], the IC50 in assay [1] (setting [3]) and in assay [2] (setting [4]) was ≤ 100 nM each time.

For `COc1ncc(F)cc1O[C@H]1C[C@H](c2cc3c(C)nc4c(F)c(-c5cccc(Cl)c5Cl)c(CCC#N)cc4c3n2[C@H]2[C@H]3CN[C@@H]2C3)N(C(=O)C2CC2)C1` [Example 447], the IC50 in assay [1] (setting [3]) and in assay [2] (setting [4]) was ≤ 100 nM each time.

As to `Cc1nn(CC(F)F)cc1O[C@H]1C[C@H](c2cc3c(C)nc4c(F)c(-c5cccc(Cl)c5Cl)c(CCC#N)cc4c3n2[C@H]2[C@H]3CN[C@@H]2C3)N(C(=O)C2CC2)C1` [Example 408], the IC50 in assay [1] (setting [3]) and in assay [2] (setting [4]) was ≤ 100 nM throughout.

Consider `CC(=O)NC(C)(C)c1cn([C@H]2C[C@H](c3cc4c(C)nc5c(F)c(-c6cccc(Cl)c6Cl)c(CCC#N)cc5c4n3[C@H]3[C@H]4CN[C@@H]3C4)N(C(=O)C3CC3)C2)nn1` [Example 272], for which the IC50 in assay [1] (setting [3]) and in assay [2] (setting [4]) was ≤ 100 nM each time.

Take `Cc1nc2c(F)c(-c3cccc(Cl)c3Cl)c(CCC#N)cc2c2c1cc([C@H]1C[C@H](OCC3CCCCC3)CN1C(=O)C1CC1)n2[C@H]1[C@H]2CN[C@@H]1C2` [Example 86]: the IC50 in assay [1] (setting [3]) and in assay [2] (setting [4]) was ≤ 100 nM in each case.
